According to PubChem BioAssay (NCI):
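Exposure lasted 48 hours, with cells grown in 96-well plates and compounds tested at five concentrations. At the GI50, growth is halved. Definition used: TGI = concentration required for complete inhibition of growth.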

What was measured:
Assay in all cases: inhibition of tumour cell growth, NCI panel, 48 h
EKVX NSCLC = system: EKVX NSCLC
UO-31 renal = system: UO-31 renal
IGROV1 ovarian = system: IGROV1 ovarian
ACHN renal = system: ACHN renal
SK-MEL-28 melanoma = system: SK-MEL-28 melanoma
UACC-62 melanoma = system: UACC-62 melanoma
HCT-15 colon = system: HCT-15 colon
NCI-H460 lung = system: NCI-H460 lung
MDA-MB-435 = system: MDA-MB-435
PC-3 prostate = system: PC-3 prostate

| SMILES | TGI (EKVX NSCLC) [µM] | TGI (UO-31 renal) [µM] | TGI (IGROV1 ovarian) [µM] | TGI (ACHN renal) [µM] | TGI (SK-MEL-28 melanoma) [µM] | TGI (UACC-62 melanoma) [µM] | TGI (HCT-15 colon) [µM] | TGI (NCI-H460 lung) [µM] | GI50 (UO-31 renal) [µM] | GI50 (MDA-MB-435) [µM] | TGI (MDA-MB-435) [µM] | GI50 (IGROV1 ovarian) [µM] | GI50 (ACHN renal) [µM] | GI50 (SK-MEL-28 melanoma) [µM] | GI50 (UACC-62 melanoma) [µM] | GI50 (HCT-15 colon) [µM] | GI50 (PC-3 prostate) [µM] | TGI (PC-3 prostate) [µM] | GI50 (NCI-H460 lung) [µM] | GI50 (EKVX NSCLC) [µM] |
| --- | --- | --- | --- | --- | --- | --- | --- | --- | --- | --- | --- | --- | --- | --- | --- | --- | --- | --- | --- | --- |
| COC(=O)C1C(=O)O[C@@H](c2ccc(OC)c(OC)c2OC)C1C(=O)OC (mixture of isomers) | > 100 | > 100 | > 100 | > 100 | > 100 | > 100 | > 100 | > 100 | – | – | – | – | – | – | – | – | – | – | – | – |
| CC1CCC(=O)C(C(O)CC2CC(=O)N(c3ccccc3)C(=O)C2)C1 (stereo unspecified) | > 100 | > 100 | > 100 | > 100 | > 100 | > 100 | – | > 100 | – | – | – | – | – | – | – | – | – | – | – | – |
| CN(NC1OC(CO)C(O)C(O)C1O)c1ccccc1 (stereo unspecified) | – | – | > 100 | > 100 | > 100 | > 100 | > 100 | > 100 | – | – | – | – | – | – | – | – | – | – | – | – |
| COc1cc(-c2ccc(NC(=O)SCCC(=O)O)cc2OC)ccc1NC(=O)SCCC(=O)O | > 100 | > 100 | – | > 100 | > 100 | – | > 100 | > 100 | – | – | – | – | – | – | – | – | – | – | – | – |
| Clc1ccc2ncc(-c3cccc(NC4CNC4)n3)n2c1 | – | 88.5 | 44.6 | > 100 | > 100 | 27.3 | > 100 | 13.5 | 5.12 | 4.76 | 21.5 | 4.57 | 1.91 | 13 | 10.2 | 5.39 | 4.55 | 80.9 | 2.96 | – |
| O=c1c2ccccc2nc(-c2ccccc2Cl)n1-c1nnc(C(F)(F)F)s1 | – | 11.6 | > 100 | 27.7 | 90.9 | 14.4 | 15 | 23.3 | 2.75 | 3.19 | 53.1 | 4.17 | 3.74 | 4.63 | 2.85 | 2.94 | 2.76 | 14.1 | 3.38 | – |
| c1ccc(-c2n(Cc3ccc4ccccc4c3)cc[n+]2Cc2ccc3ccccc3c2)cc1 | – | 2.87 | 2.13 | 3.43 | 2.53 | 1.73 | 3.46 | – | 1.47 | 1.02 | 2.24 | 0.651 | 1.77 | 1.14 | 0.447 | 1.79 | 1.22 | 2.68 | – | – |
| O=C1C2c3[nH]c4ccccc4c3C3CCCCCC3C2C(=O)N1c1ccccc1 (stereo unspecified) | > 100 | 99.4 | 72 | > 91.1 | 97.7 | > 100 | > 100 | > 77.4 | – | – | – | – | – | – | – | – | – | – | – | – |
| CC(=O)[CH-]C(=O)c1ccccc1.CC(=O)[CH-]C(=O)c1ccccc1.CC(C)CCC[C@H](C)C1CCC2[C@@H]3CC=C4C[C@@H]([O-])CC[C@]4(C)C3CC[C@@]21C.CC(C)CCC[C@H](C)C1CCC2[C@@H]3CC=C4C[C@@H]([O-])CC[C@]4(C)C3CC[C@@]21C.Cl.[Ti+4] (stereo partly specified) | > 25 | > 25 | > 25 | > 25 | > 25 | > 25 | > 25 | > 25 | > 25 | – | – | > 25 | > 25 | > 25 | > 25 | > 25 | – | – | > 25 | > 25 |
| O=C(CO[N+](=O)[O-])OC/C=C/c1ccccc1 | > 100 | > 100 | > 100 | > 100 | – | – | > 100 | > 100 | – | – | – | – | – | – | – | – | – | – | – | – |
| CC(=O)Nc1ccc(/C=C2\N=C(c3ccccc3)OC2=O)cc1 | > 100 | > 100 | > 31.6 | > 100 | > 100 | > 60.1 | > 100 | > 100 | – | – | – | – | – | – | – | – | – | – | – | – |
| COC1OC(CBr)C(OC(=O)c2ccccc2)C(OS(=O)(=O)c2ccc(C)cc2)C1Br (stereo unspecified) | > 100 | > 100 | – | > 100 | > 100 | – | > 100 | > 100 | – | – | – | – | – | – | – | – | – | – | – | – |
| O=C(Nc1ccccc1C(F)(F)F)c1ccc(NC2=C(Cl)C(=O)N(Cc3ccccc3)C2=O)cc1 | > 100 | – | 65.9 | > 100 | > 100 | 59.2 | > 100 | > 100 | – | 51.5 | > 100 | 19.3 | 33.7 | > 100 | 18.1 | 4.19 | 12.2 | > 100 | 33.2 | 86.9 |
| COc1cc(/C=C/c2ccc(Br)cc2)cc(OC)c1OC | > 61.3 | 80.1 | > 100 | > 100 | 48 | > 72.1 | 61.1 | 49.4 | – | – | – | – | – | – | – | – | – | – | – | – |
| COc1ccc(-c2ccccc2)c2[nH]c3c(c12)CCNC3=O | > 100 | > 100 | > 100 | – | – | > 100 | > 100 | > 100 | – | – | – | – | – | – | – | – | – | – | – | – |
| O=C(CCl)Nc1cc(Cl)c(Cl)cc1Cl | 4.67 | – | 3.3 | 4.58 | 4.04 | 3.59 | 4.3 | 7.04 | – | – | 2.77 | – | – | – | – | – | – | 3.29 | – | – |
| COc1ccc(S(=O)(=O)N[C@H](C(=O)O)c2ccccc2)cc1 | > 100 | > 100 | > 100 | > 100 | > 100 | > 100 | > 100 | > 100 | – | – | – | – | – | – | – | – | – | – | – | – |
| O=C(Nc1cccc(-n2cc(-c3ccncc3)c(-c3ccc(O)c(Cl)c3)n2)c1)c1cc(C(F)(F)F)cc(C(F)(F)F)c1 | – | > 50 | > 50 | > 50 | > 50 | > 50 | > 50 | > 50 | 4.15 | 4.43 | > 50 | 11.2 | 2.79 | 10.3 | 10.6 | 2.39 | 2.17 | > 50 | 1.9 | – |
| CCOc1ccc(OCC)c([P+](c2ccccc2)(c2ccccc2)c2ccccc2)c1 | 16.5 | – | 13.3 | 10.5 | 16.8 | 14.8 | – | 11.6 | – | – | – | – | – | – | – | – | – | – | – | – |
